Paper PMC11051198, “Synthesis and Late-Stage Modification of (−)-Doliculide Derivatives Using Matteson’s Homologation Approach” (Marine Drugs, 2024)

What was measured:
KB3.1 = assay: MTT cytotoxicity assay, KB3.1; format: cell-based; conditions: KB3.1 human epidermoid carcinoma cell line, 5 d incubation, 37 °C, 5% CO2, DMEM + 10% FBS, mean ± SD of two independent measurements
Experimental: (§1) The cell cultures were cultivated at 37 °C under an atmosphere containing 5% CO2. Before usage, Dulbecco’s Modified Eagle Medium (DMEM) from Gibco (Thermo Fisher Scientific) was supplemented with 10% fetal bovine serum (FBS) from Gibco. Cells were used between passage 5 and 30 and were split separately for at least two passages to obtain biological repeats. Cells were washed with PBS and 0.5 mL trypsin was added before treatment. Cells were then incubated for 5 min before adding 10 mL medium containing 10% FBS. Per well, 120 µL cell suspension 5 × 10^4 cells/mL (CHO-K1, HCT-116. U-2 OS, KB3.1) or 1 × 10^5 cells/mL (HepG2) cells were seeded in transparent 96-well cell bind plate and incubated for 2 h at 37 °C and an atmosphere of 5% CO2. Each compound was tested in a serial dilution so that the starting concentration is 111 µg/mL, which is diluted by 1:3 as well as the internal solvent control prepared in DMEM with 10% FBS. After 5 d incubation at 37 °C and an atmosphere of 5% CO2, 20 μL of 5 mg/mL MTT (thiazolyl blue tetrazolium bromide) in PBS was added per well and cells were further incubated until coloration of the cells. The medium was then discarded and 100 μL 2-propanol/10 N HCl (250:1) added to the cells. The plates were analyzed by measuring the absorbance at 570 nm and 630 nm as reference using a microplate reader Infinite® 200 Pro from Tecan (Männedorf, Switzerland). Absorption is then converted to cell viability expressed as percentage relative to the respective solvent control. The calculated percentage of growth inhibition were determined by sigmoidal curve fitting using GraphPad (Boston, MA, USA) Prism software (version 10.0.2). Two independent measurements were generated for mean and standard deviation.

HCT-116 = assay: MTT cytotoxicity assay, HCT-116; format: cell-based; conditions: HCT-116 human colon carcinoma, 5 d incubation, 37 °C, 5% CO2, DMEM + 10% FBS, mean ± SD of two independent measurements
Experimental: as §1

HeLa-S3 cells = conditions: ref [1]; cited from earlier work
Experimental: Isolation of (−)-doliculide (Figure 1) from the Japanese sea hare, Dolabella auricularia, was first reported almost 30 years ago by Yamada et al., along with its potent cytotoxicity against HeLa-S3 cells (IC50 = 1 ng/mL). […] Due to their biological activities as anticancer agents, naturally derived cyclopeptides are interesting candidates for drug development, and so ...

CHO-K1 = assay: MTT cytotoxicity assay, CHO-K1; format: cell-based; conditions: CHO-K1 mutagenized Chinese hamster ovary, 5 d incubation, 37 °C, 5% CO2, DMEM + 10% FBS, mean ± SD of two independent measurements
Experimental: as §1

U-2 OS = assay: MTT cytotoxicity assay, U-2 OS; format: cell-based; conditions: U-2 OS human bone osteosarcoma, 5 d incubation, 37 °C, 5% CO2, DMEM + 10% FBS, mean ± SD of two independent measurements
Experimental: as §1

HepG2 = assay: MTT cytotoxicity assay, HepG2; format: cell-based; conditions: HepG2 human hepatocellular carcinoma, 5 d incubation, 37 °C, 5% CO2, DMEM + 10% FBS, mean ± SD of two independent measurements
Experimental: as §1

[1] = ≤ values: individual results varied widely, given as a range

Compound | IC50 (KB3.1; [1]) | IC50 (HCT-116; [1]) | cytotoxicity against HeLa-S3 cells, IC50 (HeLa-S3 cells) | IC50 (CHO-K1) | IC50 (U-2 OS; [1]) | IC50 (HepG2) | IC50 (KB3.1) | IC50 (U-2 OS) | IC50 (HCT-116)
CC(C)[C@@H]1C[C@H](O)[C@H](C)C[C@H](C)C[C@H](C)C(=O)NCC(=O)N(C)[C@H](Cc2ccc(O)c(I)c2)C(=O)O1 [A, (−)-Doliculide] | 0.038 ± 0.0099 µM | 0.0088 ± 0.0005 µM | 1 ng/mL | 0.111 ± 0.0045 µM | 0.0252 ± 0.0018 µM | 0.0164 ± 0.0042 µM |  |  | 
CCOC(=O)CCSCCC[C@@H]1C[C@H](O)[C@H](C)C[C@H](C)C[C@H](C)C(=O)NCC(=O)N(C)[C@H](Cc2ccc(O)c(I)c2)C(=O)O1 [Compound 11d, Ethyl 3-({3-[(3R,9S,11S,13R,14S,16R)-14-hydroxy-3-(4-hydroxy-3-iodobenzyl)-4,9,11,13-tetramethyl-2,5,8-trioxo-1-oxa-4,7-diazacyclohexadecan-16-yl]propyl}-thio)propanoate] |  | 0.06 ± 0.013 µM |  | 9.84 ± 3.87 µM |  | > 49.4 µM | 3.93 ± 1.14 µM | 4.9 ± 3.87 µM | 
Benzyl 2-(4-{[(3R,9S,11S,13R,14S,16R)-14-hydroxy-3-(4-hydroxy-3-iodobenzyl)-4,9,11,13-tetramethyl-2,5,8-trioxo-1-oxa-4,7-diazacyclohexadecan-16-yl]methyl}-1H-1,2,3-triazol-1-yl)acetate [Compound 9c] |  |  |  | 23.8 ± 0.5 µM |  | > 46 µM | 21.9 ± 12.6 µM | 14.4 ± 1.3 µM | 3.81 ± 1 µM
